Broadly, the Kd is the constant that tells how readily two partners part at equilibrium. What is called EC50 is the concentration that produces a half-maximal response. The IC50 is the point on the concentration scale where inhibition reaches its midpoint.

Each structure is given as a SMILES string. Where two headings read alike, the source gives them in different places.

Assay [1] concerns the target T1, EGFR intracellular kinase domain (Homo sapiens, UniProt P00533). Description: SPR binding (Biacore 8K). More on the design: the intracellular tyrosine kinase (TK) domain of EGFR, tagged with GST; purchased Sinobiological, China. The settings on record: without ATP. From the text:
(§1) The extracellular ligand-binding domain of EGFR, tagged with His, and the intracellular tyrosine kinase (TK) domain of EGFR, tagged with GST, were acquired from Sinobiological, China. Kinase assay systems for both wild-type EGFR and its mutants—T790M, L858R, and the dual L858R/T790M—were procured from Promega Corporation, USA. Cell lines including MCF-7, A549, A431, H1299, HL-60, and MCF-10A were obtained from the China Infrastructure Cell Line Resources.
(§2) The binding affinities of compounds towards EGFR extracellular ligand binding domain and EGFR intracellular kinase domain were assayed using the SPR-based Biacore 8K instrument (Cytiva). Considering the purchased EGFR was fused with GST tag, GST alone was also immobilized on the chip to do the binding measurement. All the proteins were respectively immobilized on a CM5 sensor chip by using standard amine-coupling at 25°C with running buffer HEPES-P (20 mM HEPES buffer, […], 0.05% surfactant P20, pH 7.4). A reference channel was only activated and blocked to eliminate compound unspecific binding to the surface of the chip. The immobilization level of EGFR extracellular ligand binding domain, EGFR intracellular kinase domain and GST were all about 10,000 RU. […] Extra wash with 50% DMSO was added to remove the last remaining sample in the pipeline.

For assay [2], the target named is T2, EGFR extracellular ligand binding domain (Homo sapiens, UniProt P00533).
T2 construct: His; purchased Sinobiological, China
T2 sequence (P00533 25-645 limits assumed): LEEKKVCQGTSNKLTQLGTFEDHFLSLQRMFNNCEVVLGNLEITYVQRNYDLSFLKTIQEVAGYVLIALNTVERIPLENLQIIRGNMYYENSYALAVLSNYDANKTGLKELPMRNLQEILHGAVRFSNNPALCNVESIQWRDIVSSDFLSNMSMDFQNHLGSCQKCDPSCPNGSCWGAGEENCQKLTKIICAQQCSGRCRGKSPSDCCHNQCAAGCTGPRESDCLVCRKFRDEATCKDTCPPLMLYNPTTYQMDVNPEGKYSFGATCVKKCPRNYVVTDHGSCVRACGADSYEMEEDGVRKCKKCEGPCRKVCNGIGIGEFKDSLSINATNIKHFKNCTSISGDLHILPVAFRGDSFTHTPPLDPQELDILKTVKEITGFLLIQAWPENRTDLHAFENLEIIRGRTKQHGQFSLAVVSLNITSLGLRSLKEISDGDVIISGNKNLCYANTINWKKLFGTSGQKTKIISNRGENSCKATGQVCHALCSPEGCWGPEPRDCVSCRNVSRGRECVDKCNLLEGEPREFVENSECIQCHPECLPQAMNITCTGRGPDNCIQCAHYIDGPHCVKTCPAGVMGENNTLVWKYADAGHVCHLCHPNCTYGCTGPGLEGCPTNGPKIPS
Kind of assay: SPR binding (Biacore 8K).
Source text: as §1, §2
(In general: SPR reads the build-up and loss of mass on a sensor chip optically.)

Assay [3] deals with T1, EGFR intracellular kinase domain. Description: SPR ATP competition experiments (1 mM ATP). As to conditions: in the presence of ATP, Figure S6.
A further assay deals with MCF-7 cells. Kind of assay: MTT assay, MCF-7 growth inhibition. It is filed as cell-based, human. As to conditions: Homo sapiens, read-out: EC50, MCF-7 cell viability. The protocol: Both mediums were enriched with 10% fetal bovine serum and 1% penicillin/streptomycin.
Cells in the exponential growth phase were seeded into 96-well plates and allowed to adhere overnight. […] After 24 h, 20 µL of Methyl-thiazolyldiphenyl-tetrazolium bromide (MTT, 5 mg/mL, Thermo Fisher Scientific) was added to each well and incubated for a minimum of 4 h. Following the incubation, the medium containing the compounds and MTT was removed from each well, and 200 µL of dimethyl sulfoxide (DMSO) was added.
(§3) All experiments were repeated at least three times, and the data are presented as mean ± standard deviation (SD). The statistical analyses were performed using Origin. EC50 or IC50 values were obtained by fitting the data to a four-parameter Hill model of the graph of log dose against percentage cell viability or inhibition from at least three sets of experiments. Difference between two groups were analyzed by Student’s t test (two-sided) and significance was set at p < 0.05. The specific details about statistical methods are introduced in respective figure legends.
Background: Tetrazolium dyes change colour on reduction, which living cells bring about.

For another assay, the target named is T3, WT EGFR (Homo sapiens, UniProt P00533).
T3 construct: purchased Promega Corporation, USA
T3 sequence (P00533 25-1210): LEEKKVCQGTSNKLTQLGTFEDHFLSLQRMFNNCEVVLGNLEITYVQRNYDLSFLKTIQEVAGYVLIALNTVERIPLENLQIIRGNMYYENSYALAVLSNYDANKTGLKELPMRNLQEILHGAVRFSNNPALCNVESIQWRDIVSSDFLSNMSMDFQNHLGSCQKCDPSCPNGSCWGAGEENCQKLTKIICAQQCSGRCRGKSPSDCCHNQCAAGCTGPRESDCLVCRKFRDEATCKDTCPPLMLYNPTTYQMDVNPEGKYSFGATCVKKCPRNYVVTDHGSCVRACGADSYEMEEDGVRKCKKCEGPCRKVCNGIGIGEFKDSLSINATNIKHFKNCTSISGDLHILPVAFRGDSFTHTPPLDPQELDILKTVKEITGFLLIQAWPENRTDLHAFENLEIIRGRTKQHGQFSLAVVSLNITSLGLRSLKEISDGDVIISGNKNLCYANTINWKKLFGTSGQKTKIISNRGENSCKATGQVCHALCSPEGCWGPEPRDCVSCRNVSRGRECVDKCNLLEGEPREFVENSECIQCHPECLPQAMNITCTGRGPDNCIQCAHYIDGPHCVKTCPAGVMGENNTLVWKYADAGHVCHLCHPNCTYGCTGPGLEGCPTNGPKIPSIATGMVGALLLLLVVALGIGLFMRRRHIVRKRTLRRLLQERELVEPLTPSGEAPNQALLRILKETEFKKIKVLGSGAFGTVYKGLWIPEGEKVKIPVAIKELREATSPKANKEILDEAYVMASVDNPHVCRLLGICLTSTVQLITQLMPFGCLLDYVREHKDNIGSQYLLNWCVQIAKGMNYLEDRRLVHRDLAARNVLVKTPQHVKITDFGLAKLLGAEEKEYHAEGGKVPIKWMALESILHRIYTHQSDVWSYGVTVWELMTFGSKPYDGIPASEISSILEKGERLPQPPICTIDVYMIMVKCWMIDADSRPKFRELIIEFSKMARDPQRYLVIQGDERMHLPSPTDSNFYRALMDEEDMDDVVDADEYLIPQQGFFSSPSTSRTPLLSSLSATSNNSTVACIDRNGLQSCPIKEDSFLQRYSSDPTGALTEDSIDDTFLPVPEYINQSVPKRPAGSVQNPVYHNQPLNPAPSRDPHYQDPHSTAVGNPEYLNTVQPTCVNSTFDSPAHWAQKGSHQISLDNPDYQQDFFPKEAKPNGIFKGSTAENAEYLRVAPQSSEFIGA
Description: Kinase inhibition assay (ADP-Glo, Promega). The assay is classed as biochemical. The settings on record: in vitro kinase assay. The protocol: (§4) The extracellular ligand-binding domain of EGFR, tagged with His, and the intracellular tyrosine kinase (TK) domain of EGFR, tagged with GST, were acquired from Sinobiological, China. […] Cell lines including MCF-7, A549, A431, H1299, HL-60, and MCF-10A were obtained from the China Infrastructure Cell Line Resources.
(§5) The experiments were conducted in accordance with the manufacturer’s guidelines (Promega). The procedure began with a kinase reaction, where 5 μL of 1× kinase buffer was utilized, and the mixture was incubated at room temperature for 60 min. This step was followed by the addition of 5 μL of ADP-Glo™ reagent to terminate the kinase reaction and to deplete any remaining ATP, with a subsequent incubation period of 40 min at room temperature. Next, 10 μL of kinase detection reagent was added to convert ADP back into ATP, and luciferase along with luciferin was introduced to facilitate ATP detection. This mixture was then incubated at room temperature for an additional 30 min. Detection was carried out using a BioTek Synergy4 instrument, and data analysis, including curve fitting and presentation, was performed using GraphPad Prism version 5.0.
as §3
Background: In ADP-Glo the light output rises with the ADP produced.

Another assay deals with T4, EGFR T790M (Homo sapiens, UniProt P00533, T790M).
T4 construct: purchased Promega Corporation, USA
T4 sequence (P00533 25-1210 T790M): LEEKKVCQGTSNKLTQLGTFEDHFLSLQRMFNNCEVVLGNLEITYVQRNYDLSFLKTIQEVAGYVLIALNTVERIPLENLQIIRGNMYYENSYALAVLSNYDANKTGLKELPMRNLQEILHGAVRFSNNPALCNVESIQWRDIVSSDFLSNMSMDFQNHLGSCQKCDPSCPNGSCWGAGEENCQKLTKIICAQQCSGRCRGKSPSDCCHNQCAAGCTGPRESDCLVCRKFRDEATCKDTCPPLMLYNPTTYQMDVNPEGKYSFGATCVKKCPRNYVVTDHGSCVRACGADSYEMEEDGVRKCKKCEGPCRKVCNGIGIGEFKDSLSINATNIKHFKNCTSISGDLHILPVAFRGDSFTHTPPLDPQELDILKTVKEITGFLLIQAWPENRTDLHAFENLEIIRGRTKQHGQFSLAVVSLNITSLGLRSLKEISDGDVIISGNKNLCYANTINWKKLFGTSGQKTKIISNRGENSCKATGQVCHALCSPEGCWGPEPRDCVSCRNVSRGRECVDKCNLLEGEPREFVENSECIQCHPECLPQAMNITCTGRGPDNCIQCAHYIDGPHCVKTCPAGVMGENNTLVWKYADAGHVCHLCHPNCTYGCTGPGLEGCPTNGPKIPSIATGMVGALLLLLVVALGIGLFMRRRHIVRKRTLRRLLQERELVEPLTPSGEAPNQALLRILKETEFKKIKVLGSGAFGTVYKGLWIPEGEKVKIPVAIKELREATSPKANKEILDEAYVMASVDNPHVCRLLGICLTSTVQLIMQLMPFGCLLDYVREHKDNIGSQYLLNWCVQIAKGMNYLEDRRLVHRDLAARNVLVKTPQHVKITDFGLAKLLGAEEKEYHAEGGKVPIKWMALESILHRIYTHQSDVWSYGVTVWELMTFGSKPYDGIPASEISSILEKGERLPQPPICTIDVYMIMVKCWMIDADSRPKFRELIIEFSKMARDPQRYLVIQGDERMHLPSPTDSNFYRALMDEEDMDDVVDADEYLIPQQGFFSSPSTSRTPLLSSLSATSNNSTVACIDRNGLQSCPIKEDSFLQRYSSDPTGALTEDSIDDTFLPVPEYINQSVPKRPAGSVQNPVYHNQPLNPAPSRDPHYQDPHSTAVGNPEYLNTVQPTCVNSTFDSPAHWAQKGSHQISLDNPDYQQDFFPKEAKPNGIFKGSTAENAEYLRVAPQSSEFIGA
Description: Kinase inhibition assay (ADP-Glo, Promega). It is filed as biochemical. The protocol:
as §4, §5, §3

A further assay addresses T5, EGFR L858R (Homo sapiens, UniProt P00533, L858R).
T5 construct: purchased Promega Corporation, USA
Description: Kinase inhibition assay (ADP-Glo, Promega). The assay is classed as biochemical. The procedure: as §4, §5, §3

The target in the next assay is T6, EGFR L858R/T790M (Homo sapiens, UniProt P00533, L858R/T790M).
T6 construct: purchased Promega Corporation, USA
Description: Kinase inhibition assay (ADP-Glo, Promega). It is filed as biochemical. The protocol:
as §4, §5, §3

Assay [4] deals with T2, EGFR extracellular ligand binding domain. Description: SPR EGF competition experiments. As to conditions: for kon: read-out: ka. From the text: The protocol fixed the pre-flank contact time, analyte contact time, and post-flank contact time at 60 s, 60 s, and 120 s, respectively.

T1 sequence (P00533 712-979 limits assumed): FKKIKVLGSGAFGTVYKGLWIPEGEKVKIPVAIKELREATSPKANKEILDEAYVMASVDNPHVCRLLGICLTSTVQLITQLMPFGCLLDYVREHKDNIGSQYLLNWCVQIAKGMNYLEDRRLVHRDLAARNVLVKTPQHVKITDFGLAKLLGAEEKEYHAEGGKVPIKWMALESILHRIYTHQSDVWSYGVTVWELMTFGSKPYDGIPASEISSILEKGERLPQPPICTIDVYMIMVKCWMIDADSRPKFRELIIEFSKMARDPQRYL
T5 sequence (P00533 25-1210 L858R): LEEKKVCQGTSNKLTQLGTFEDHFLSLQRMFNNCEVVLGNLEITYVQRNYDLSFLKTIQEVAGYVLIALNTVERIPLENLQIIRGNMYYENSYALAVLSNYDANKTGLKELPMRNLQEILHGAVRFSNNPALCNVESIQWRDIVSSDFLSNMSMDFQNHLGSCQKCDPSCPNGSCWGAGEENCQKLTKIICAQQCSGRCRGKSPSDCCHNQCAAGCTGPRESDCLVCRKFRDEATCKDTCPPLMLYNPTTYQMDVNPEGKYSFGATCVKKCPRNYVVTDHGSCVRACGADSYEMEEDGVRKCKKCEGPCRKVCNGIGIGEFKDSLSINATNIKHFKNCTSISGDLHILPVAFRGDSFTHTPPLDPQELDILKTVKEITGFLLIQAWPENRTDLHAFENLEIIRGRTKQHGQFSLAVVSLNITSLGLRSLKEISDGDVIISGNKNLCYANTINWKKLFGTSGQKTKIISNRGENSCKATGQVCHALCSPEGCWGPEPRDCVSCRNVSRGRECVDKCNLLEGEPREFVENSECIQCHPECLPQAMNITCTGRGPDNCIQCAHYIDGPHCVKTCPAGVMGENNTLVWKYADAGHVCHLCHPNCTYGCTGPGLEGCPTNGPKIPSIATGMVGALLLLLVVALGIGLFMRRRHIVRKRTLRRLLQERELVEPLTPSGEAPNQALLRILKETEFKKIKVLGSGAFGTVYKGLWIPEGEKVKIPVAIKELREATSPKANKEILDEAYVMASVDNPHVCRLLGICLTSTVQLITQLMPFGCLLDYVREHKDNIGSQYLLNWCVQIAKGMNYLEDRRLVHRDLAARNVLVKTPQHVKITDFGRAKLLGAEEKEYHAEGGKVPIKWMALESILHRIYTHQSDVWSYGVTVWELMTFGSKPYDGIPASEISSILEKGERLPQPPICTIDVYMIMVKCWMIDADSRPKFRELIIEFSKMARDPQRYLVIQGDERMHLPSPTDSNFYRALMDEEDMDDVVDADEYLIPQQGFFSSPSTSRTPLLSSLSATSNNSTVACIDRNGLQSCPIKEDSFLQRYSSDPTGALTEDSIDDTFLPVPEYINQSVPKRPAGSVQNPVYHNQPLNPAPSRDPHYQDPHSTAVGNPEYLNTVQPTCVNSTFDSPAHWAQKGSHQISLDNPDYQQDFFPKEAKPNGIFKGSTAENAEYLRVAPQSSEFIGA

On to `CC[C@@H](C)[C@H]1C=C[C@H]2[C@H](OC(=O)/C=C(\C)CC(=O)OC)[C@H](O)C[C@@H](C)[C@@H]2[C@@]1(C)C(=O)CCO` [Tandyukisin B], for which the Kd is 7.02 µM in [1] and 30 µM in assay [2]. The “binding to kinase domain of EGFR” value in assay [3] was “hardly bind”. In addition, the EC50 in the assay with MCF-7 cells (MCF7, MTT, 24 h) came out at 9.2 ± 1.2 µM. Moreover, the IC50 stood at 0.0147 ± 0.0011 µM on WT EGFR (read-out: IC50 against WT EGFR) and 0.0373 ± 0.0001 µM at EGFR T790M (in vitro kinase assay, read-out: IC50 against EGFR T790M).

As for `CC[C@@H](C)[C@H]1C=C[C@H]2[C@H](OC(=O)C/C(C)=C\C(=O)O)[C@H](O)C[C@@H](C)[C@@H]2[C@@]1(C)C(=O)CCO` [Tandyukisin C], the dissociation constant (Kd) came out at 6.56 µM in [1] and 55.1 µM in assay [2]. Moreover, in assay [3], the “binding to kinase domain of EGFR” value was “hardly bind”. The EC50 with MCF-7 cells (MCF7, 24 h) is 8.7 ± 1 µM. For the same compound, the half-inhibitory concentration (IC50) on WT EGFR (IC50 against WT EGFR) came to 0.0126 ± 0.0001 µM; at EGFR T790M, 0.0297 ± 0.0001 µM; at EGFR L858R, 0.003 ± 0.0002 µM; at EGFR L858R/T790M, 0.156 ± 0.004 µM.

As for `CC[C@@H](C)[C@H]1C=C[C@H]2[C@H](O)[C@H](OC(=O)/C=C(\C)CC(=O)O)C[C@@H](C)[C@@H]2[C@@]1(C)C(=O)CCO` [Trichoharzin], the Kd was found to be 6.34 µM in assay [1]; 7.98 µM in [2]; 26.2 µM in assay [4] (EGF 2.5 nM, Figure 4H, read-out: KD); 40.6 µM in assay [4] (EGF 10 nM, Figure 4I, read-out: KD); 56.2 µM in assay [4] (EGF 20 nM, Figure 4J, read-out: KD); 26.2 µM in assay [4] (in the presence of EGF 2.5 nM, read-out: KD for EGFR extracellular ligand binding domain). Further, the Kd in assay [4] (in the presence of EGF 10 nM, read-out: KD for EGFR extracellular ligand binding domain) amounted to 40.6 µM; in assay [4] (in the presence of EGF 20 nM, read-out: KD for EGFR extracellular ligand binding domain), 56.2 µM. Also, the kon was 8040 M⁻¹ s⁻¹ in assay [1] (Figure 4A-B, read-out: ka, EGFR kinase domain); 1810 M⁻¹ s⁻¹ in [2] (Figure 4C-D, read-out: ka, EGFR ligand binding domain); 1030 M⁻¹ s⁻¹ in assay [4] (EGF 2.5 nM, Figure 4H); 552 M⁻¹ s⁻¹ in assay [4] (EGF 10 nM, Figure 4I); 374 M⁻¹ s⁻¹ in [4] (EGF 20 nM, Figure 4J). The EC50 in the assay on MCF-7 cells (MCF7, 24 h) is 4.8 ± 0.4 µM. The concentration for half-maximal inhibition (IC50) stood at 0.0119 ± 0.0001 µM at WT EGFR (IC50 against WT EGFR), 0.032 ± 0.0005 µM on EGFR T790M, 0.0028 ± 0.0006 µM at EGFR L858R and 0.0855 ± 0.0277 µM at EGFR L858R/T790M. Besides, the “folds weaker than binding alone” value came to 3.3 fold in assay [4] (EGF 2.5 nM), 5.1 fold in assay [4] (EGF 10 nM) and 7.0 fold in [4] (EGF 20 nM). For the same compound, the “inhibition of EGF-EGFR interaction” value in [4] (SPR, concentration-dependent, 125-500 μM) is given as “significantly inhibiting”.
